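Test compounds were applied to cells in 96-well plates for 48 hours at 5 doses. GI50: concentration for 50% inhibition of growth.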 Active and inactive are the calls of the source. Cut-off read from the data, not from the text of the source: active = GI50 up to about 1.1 µM and inactive = higher.
Tests used:
Assay in all cases: NCI-60 cell line screen, 48 h
CCRF-CEM = test system: CCRF-CEM
LOX IMVI = test system: LOX IMVI
SK-MEL-2 = test system: SK-MEL-2
HCT-116 = test system: HCT-116
HOP-92 = test system: HOP-92
UACC-62 = test system: UACC-62
SW-620 = test system: SW-620
COLO 205 = test system: COLO 205
A498 = test system: A498
OVCAR-3 = test system: OVCAR-3
TK-10 = test system: TK-10
HCC 2998 = test system: HCC 2998
Malme-3M = test system: Malme-3M
HT-29 = test system: HT-29
IGROV-1 = test system: IGROV-1

Measured: GI50

Cn1ccnc1Cn1cc(-c2cccc(-c3cn[nH]c3)c2)cn1
inactive: CCRF-CEM 58.5 µM | LOX IMVI 88.5 µM | SK-MEL-2 > 100 µM | HCT-116 50.7 µM | HOP-92 50.1 µM | UACC-62 9.23 µM | SW-620 82.6 µM | COLO 205 > 100 µM | A498 38.1 µM | OVCAR-3 > 100 µM | TK-10 35.5 µM | HCC 2998 > 100 µM

Cc1nc2c(n1Cc1ccc(Cl)cc1)C(=O)c1ccccc1C2=O
inactive: CCRF-CEM 4.67 µM | LOX IMVI 2.05 µM | SK-MEL-2 > 75 µM | HCT-116 2.6 µM | Malme-3M 35.6 µM | UACC-62 3.36 µM | HT-29 4.08 µM | COLO 205 > 75 µM | IGROV-1 > 75 µM | OVCAR-3 67.3 µM | TK-10 > 75 µM | HCC 2998 > 75 µM

CCc1cccc(C)c1NC(=O)CC1C(=O)Nc2ccccc2[S+]1[O-] (stereo not drawn)
inactive: LOX IMVI 44.5 µM | SK-MEL-2 43.5 µM | HCT-116 35.8 µM | Malme-3M 28.5 µM | HOP-92 53.7 µM | HT-29 33.4 µM | SW-620 48.3 µM | COLO 205 39.2 µM | OVCAR-3 57.3 µM | TK-10 > 100 µM | HCC 2998 56.4 µM

O=C(COC(=O)c1cccc2c(=O)c3ccccc3[nH]c12)Nc1ccccc1
inactive: LOX IMVI 24.2 µM | HCT-116 24.2 µM | Malme-3M 35.9 µM | HOP-92 45 µM | UACC-62 26.4 µM | HT-29 31.8 µM | SW-620 90.8 µM | COLO 205 21.7 µM | IGROV-1 > 100 µM | A498 67.8 µM | OVCAR-3 53.2 µM | TK-10 > 100 µM | HCC 2998 > 100 µM

COC(=O)[C@H]1[C@H]2C[C@@H]3c4[nH]c5cc(OC)ccc5c4CCN3C[C@H]2C[C@@H](OC(=O)c2cc(OC)c(OC)c(OC)c2)[C@@H]1OC [RESERPINE]
inactive: CCRF-CEM 13.2 µM | SK-MEL-2 19.3 µM | HCT-116 13.7 µM | Malme-3M 17.5 µM | HOP-92 10.8 µM | UACC-62 13.3 µM | HT-29 12 µM | SW-620 26.8 µM | COLO 205 15.7 µM | IGROV-1 21.5 µM | OVCAR-3 18.3 µM | TK-10 17.5 µM | HCC 2998 27.8 µM

COc1ccccc1-n1c(N)c2c(C)c(-c3ccccc3)[nH]c2nc1=S
inactive: CCRF-CEM > 100 µM | LOX IMVI > 100 µM | SK-MEL-2 > 100 µM | HCT-116 > 100 µM | Malme-3M 91.8 µM | HOP-92 > 100 µM | UACC-62 77.1 µM | SW-620 > 100 µM | COLO 205 > 100 µM | A498 > 100 µM | OVCAR-3 > 100 µM | TK-10 > 100 µM | HCC 2998 > 100 µM

Cc1ccccc1NC(=O)c1cc2cc(/N=N/c3ccccc3C(=O)O)ccc2oc1=O
inactive: CCRF-CEM 19.7 µM | LOX IMVI 16.4 µM | SK-MEL-2 22.8 µM | HCT-116 20.7 µM | Malme-3M 6.75 µM | UACC-62 4.7 µM | HT-29 15.2 µM | SW-620 27.4 µM | COLO 205 12.9 µM | IGROV-1 25 µM | OVCAR-3 34.8 µM | TK-10 48.2 µM

N#Cc1c2c(c(N=[N+]=[N-])n3c1nc1ccccc13)CCCC2
inactive: LOX IMVI 1.8 µM | SK-MEL-2 1.73 µM | HCT-116 1.43 µM | Malme-3M 2.4 µM | HT-29 1.98 µM | SW-620 2.05 µM | COLO 205 3.27 µM | IGROV-1 2.72 µM | A498 2.65 µM | OVCAR-3 3.37 µM | TK-10 2.77 µM | HCC 2998 12.6 µM

Cn1c(=O)nc2n(-c3ccc(Cl)cc3)c(-c3ccccc3)c(-c3ccccc3)nc-2c1=O
inactive: CCRF-CEM 21.9 µM | SK-MEL-2 23.6 µM | Malme-3M 28.4 µM | HOP-92 16.5 µM | UACC-62 14.5 µM | HT-29 32.1 µM | SW-620 40.7 µM | COLO 205 33 µM | IGROV-1 30.1 µM | A498 49.3 µM | OVCAR-3 21.7 µM | TK-10 51.2 µM | HCC 2998 47.2 µM

COC(=O)C1C=CCON2CCc3c(n(C)c4ccccc34)C12 (stereo not drawn)
inactive: CCRF-CEM > 100 µM | LOX IMVI > 100 µM | SK-MEL-2 > 100 µM | HCT-116 > 100 µM | Malme-3M > 100 µM | HOP-92 > 100 µM | HT-29 > 100 µM | SW-620 > 100 µM | COLO 205 > 100 µM | IGROV-1 > 100 µM | A498 46.6 µM | OVCAR-3 > 100 µM | TK-10 > 100 µM | HCC 2998 > 100 µM

CC1=C(C(=O)CC(=O)C(=O)NC2C3CC4CC(C3)CC2C4)Sc2ccccc2N1 (stereo not drawn)
inactive: LOX IMVI > 100 µM | SK-MEL-2 > 100 µM | Malme-3M > 100 µM | HOP-92 20.1 µM | UACC-62 > 100 µM | HT-29 > 100 µM | SW-620 > 100 µM | COLO 205 > 31.6 µM | IGROV-1 > 100 µM | A498 > 100 µM | OVCAR-3 > 100 µM | TK-10 > 100 µM | HCC 2998 > 100 µM

O=C1C(c2ccc([N+](=O)[O-])cc2)=[N+]([O-])c2ccccc21
inactive: CCRF-CEM 22.9 µM | LOX IMVI 21.1 µM | SK-MEL-2 > 100 µM | HCT-116 25.8 µM | Malme-3M 36.6 µM | HOP-92 31 µM | UACC-62 19.2 µM | HT-29 37.6 µM | SW-620 32.4 µM | COLO 205 11.1 µM | IGROV-1 43.3 µM | OVCAR-3 19.9 µM | TK-10 37.1 µM

CC(C)=CC(=O)N(C)C1C2CN3CCC(O2)C13 (stereo not drawn)
inactive: CCRF-CEM > 100 µM | LOX IMVI > 100 µM | SK-MEL-2 > 100 µM | HCT-116 > 100 µM | Malme-3M > 100 µM | UACC-62 > 100 µM | HT-29 > 100 µM | SW-620 > 100 µM | COLO 205 > 100 µM | IGROV-1 > 100 µM | A498 > 100 µM | OVCAR-3 > 100 µM | TK-10 > 100 µM | HCC 2998 > 100 µM

CNc1nnnn1C1OC(CO)C(O)C1O (stereo not drawn)
inactive: CCRF-CEM > 100 µM | LOX IMVI > 100 µM | SK-MEL-2 > 100 µM | HCT-116 > 100 µM | Malme-3M > 100 µM | UACC-62 > 100 µM | HT-29 > 100 µM | SW-620 > 100 µM | COLO 205 > 100 µM | IGROV-1 > 100 µM | A498 > 100 µM | OVCAR-3 > 100 µM | TK-10 > 100 µM | HCC 2998 > 100 µM

Cc1ccc(S(=O)(=O)OCC23CCC(CC2)C2CC23)cc1 (stereo not drawn)
inactive: CCRF-CEM 39.7 µM | LOX IMVI 42.7 µM | HCT-116 53.8 µM | Malme-3M 48.8 µM | HOP-92 25.8 µM | UACC-62 > 100 µM | HT-29 31.5 µM | SW-620 87.1 µM | COLO 205 61.8 µM | IGROV-1 > 100 µM | A498 43.3 µM | OVCAR-3 31.9 µM | TK-10 > 100 µM | HCC 2998 > 100 µM
